Measurements from US20260125382A1, “COMPOUNDS FOR INHIBITING OR DEGRADING CDK2 AND/OR CDK9 AND MEDICINAL USE THEREOF” (KOREA RESEARCH INSTITUTE OF CHEMICAL TECHNOLOGY, priority 2022, published 2026).

Experiments:
CDK9 = biological target: T1, CDK9 (Homo sapiens, UniProt P50750); experiment: CDK protein degradation activity (Western blotting), CDK9; assay type: cell-based; settings: MDA-MB-231 cells, 16 hours, Western blot
T1 construct: endogenous in cells; host or cells: MDA-MB-231
Procedure, shortened: (§1)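 CDK2 and CDK9 protein levels measured by Western blot with densitometry, using tubulin as loading reference. Cells were MDA-MB-231, exposed for 16 h to 100 nM, 1 μM or 10 μM compound or to DMSO.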

CDK2 = biological target: T2, CDK2 (Homo sapiens, UniProt P24941); experiment: CDK protein degradation activity (Western blotting), CDK2; assay type: cell-based; settings: MDA-MB-231 cells, 16 hours, Western blot
T2 construct: endogenous in cells; host or cells: MDA-MB-231
Procedure, shortened: as §1

T1 sequence (P50750 whole entry): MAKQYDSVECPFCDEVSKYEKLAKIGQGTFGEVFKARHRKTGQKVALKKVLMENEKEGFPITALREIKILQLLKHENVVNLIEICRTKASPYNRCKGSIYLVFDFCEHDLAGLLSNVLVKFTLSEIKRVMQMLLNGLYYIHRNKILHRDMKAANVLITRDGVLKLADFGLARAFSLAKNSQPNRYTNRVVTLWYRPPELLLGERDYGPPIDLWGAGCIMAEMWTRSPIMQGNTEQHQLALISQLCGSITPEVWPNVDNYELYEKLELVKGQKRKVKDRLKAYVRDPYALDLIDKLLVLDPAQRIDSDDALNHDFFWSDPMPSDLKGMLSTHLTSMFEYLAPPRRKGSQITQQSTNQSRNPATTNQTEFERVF

Compound	Enzyme degradation CDK9 (% remaining) @ 0.1 μM (CDK9) [%]	Enzyme degradation CDK9 (% remaining) @ 1 μM (CDK9) [%]	Enzyme degradation CDK9 (% remaining) @ 10 μM (CDK9) [%]	Enzyme degradation CDK2 (% remaining) @ 0.1 μM (CDK2)	Enzyme degradation CDK2 (% remaining) @ 1 μM (CDK2)	Enzyme degradation CDK2 (% remaining) @ 10 μM (CDK2)
Cc1cccc(C(=O)NC2CC(n3cnc4c(NCCCN5CCN(CC6CCN(C(=O)COc7ccc([C@@H]8CCC(=O)NC8=O)cc7)CC6)CC5)ncnc43)C2)n1 (stereo partly drawn) [Compound 229, N-((1s,3s)-3-(6-((3-(4-((1-(2-(4-(2,6-dioxopiperidin-3-yl)phenoxy)acetyl)piperidin-4-yl)methyl)piperazin-1-yl)propyl)amino)-9H-purin-9-yl)cyclobutyl)-6-methylpicolinamide]	20	10	0	70%	90%	100%
Cc1cccc(C(=O)N[C@H]2C[C@@H](n3cnc4c(NCCCN5CCN(CC6CCN(C(=O)COc7cccc([C@@H]8CCC(=O)NC8=O)c7)CC6)CC5)ncnc43)C2)n1 [Compound 230, N-((1s,3s)-3-(6-((3-(4-((1-(2-(3-(2,6-dioxopiperidin-3-yl)phenoxy)acetyl)piperidin-4-yl)methyl)piperazin-1-yl)propyl)amino)-9H-purin-9-yl)cyclobutyl)-6-methylpicolinamide]	30	10	0	50%	50%	80%
O=C1CC[C@@H](c2ccc(OCC(=O)N3CCN(CCCN4CCN(c5ccc(Nc6ncnc7c6ncn7C6CC(NC(=O)Cc7ccccc7)C6)cc5)CC4)CC3)cc2)C(=O)N1 (stereo partly drawn) [Compound 236, N-((1s,3s)-3-(6-((4-(4-(3-(4-(2-(4-(2,6-dioxopiperidin-3-yl)phenoxy)acetyl)piperazin-1-yl)propyl)piperazin-1-yl)phenyl)amino)-9H-purin-9-yl)cyclobutyl)-2-phenylacetamide]	20	0	0	50/50/50%	50/50/50%	50/50/50%
O=C1CC[C@@H](c2cccc(OCC(=O)N3CCN(CCCN4CCN(c5ccc(Nc6ncnc7c6ncn7C6CC(NC(=O)Cc7ccccc7)C6)cc5)CC4)CC3)c2)C(=O)N1 (stereo partly drawn) [Compound 237, N-((1s,3s)-3-(6-((4-(4-(3-(4-(2-(3-(2,6-dioxopiperidin-3-yl)phenoxy)acetyl)piperazin-1-yl)propyl)piperazin-1-yl)phenyl)amino)-9H-purin-9-yl)cyclobutyl)-2-phenylacetamide]	20	0	0	10%	0%	0%
O=C1CC[C@H](N2C(=O)c3cccc(N4CCN(CCCN5CCN(c6ccc(Nc7ncnc8c7ncn8C7CC(NC(=O)Cc8ccccc8)C7)cc6)CC5)CC4)c3C2=O)C(=O)N1 (stereo partly drawn) [Compound 238, N-((1s,3s)-3-(6-((4-(4-(3-(4-(2-(2,6-dioxopiperidin-3-yl)-1,3-dioxoisoindolin-4-yl)piperazin-1-yl)propyl)piperazin-1-yl)phenyl)amino)-9H-purin-9-yl)cyclobutyl)-2-phenylacetamide]	70	20	0	100%	80%	50%
O=C1CC[C@H](N2C(=O)c3cc(F)c(N4CCC5(CC4)CC(N4CCN(c6ccc(Nc7ncnc8c7ncn8[C@H]7C[C@@H](NC(=O)Cc8ccccc8)C7)cc6)CC4)C5)cc3C2=O)C(=O)N1 [Compound 244, N-((1s,3s)-3-(6-((4-(4-(7-(2-(2,6-dioxopiperidin-3-yl)-6-fluoro-1,3-dioxoisoindolin-5-yl)-7-azaspiro[3.5]nonan-2-yl)piperazin-1-yl)phenyl)amino)-9H-purin-9-yl)cyclobutyl)-2-phenylacetamide]	60	0	0	70%	50%	40%
O=C1CC[C@H](N2C(=O)c3cccc(OCC(=O)N4CCC(OCCN5CCN(c6ccc(Nc7ncnc8c7ncn8C7CC(NC(=O)Cc8ccccc8)C7)cc6)CC5)CC4)c3C2=O)C(=O)N1 (stereo partly drawn) [Compound 246, N-((1s,3s)-3-(6-((4-(4-(2-((1-(2-((2-(2,6-dioxopiperidin-3-yl)-1,3-dioxoisoindolin-4-yl)oxy)acetyl)piperidin-4-yl)oxy)ethyl)piperazin-1-yl)phenyl)amino)-9H-purin-9-yl)cyclobutyl)-2-phenylacetamide]	80	30	0	60%	40%	40%
O=C1CC[C@H](N2C(=O)c3ccc(NCC(=O)N4CCC(OCCN5CCN(c6ccc(Nc7ncnc8c7ncn8[C@H]7C[C@@H](NC(=O)Cc8ccccc8)C7)cc6)CC5)CC4)cc3C2=O)C(=O)N1 [Compound 248, N-((1s,3s)-3-(6-((4-(4-(2-((1-((2-(2,6-dioxopiperidin-3-yl)-1,3-dioxoisoindolin-5-yl)glycyl)piperidin-4-yl)oxy)ethyl)piperazin-1-yl)phenyl)amino)-9H-purin-9-yl)cyclobutyl)-2-phenylacetamide]	50	20	0	50/50/50%	50/50/50%	50/50/50%

Now from value to compound:

Enzyme degradation CDK9 (% remaining) @ 0.1 μM (CDK9) [%]	Enzyme degradation CDK9 (% remaining) @ 1 μM (CDK9) [%]	Enzyme degradation CDK9 (% remaining) @ 10 μM (CDK9) [%]	Enzyme degradation CDK2 (% remaining) @ 0.1 μM (CDK2)	Enzyme degradation CDK2 (% remaining) @ 1 μM (CDK2)	Enzyme degradation CDK2 (% remaining) @ 10 μM (CDK2)	Compound
20	0	0	50%	60%	40%	O=C1CC[C@H](N2C(=O)c3cccc(NCC(=O)N4CCN(CCCN5CCN(c6ccc(Nc7ncnc8c7ncn8[C@H]7C[C@@H](NC(=O)Cc8ccccc8)C7)cc6)CC5)CC4)c3C2=O)C(=O)N1 [Compound 231, N-((1s,3s)-3-(6-((4-(4-(3-(4-((2-(2,6-dioxopiperidin-3-yl)-1,3-dioxoisoindolin-4-yl)glycyl)piperazin-1-yl)propyl)piperazin-1-yl)phenyl)amino)-9H-purin-9-yl)cyclobutyl)-2-phenylacetamide]
90	10	0	60%	20%	20%	O=C1CCC(N2C(=O)c3cccc(OCC(=O)N4CCN(CCCN5CCN(c6ccc(Nc7ncnc8c7ncn8[C@H]7C[C@@H](NC(=O)Cc8ccccc8)C7)cc6)CC5)CC4)c3C2=O)C(=O)N1 (stereo partly drawn) [Compound 232, N-((1s,3s)-3-(6-((4-(4-(3-(4-(2-((2-(2,6-dioxopiperidin-3-yl)-1,3-dioxoisoindolin-4-yl)oxy)acetyl)piperazin-1-yl)propyl)piperazin-1-yl)phenyl)amino)-9H-purin-9-yl)cyclobutyl)-2-phenylacetamide]
40	0	0	80%	80%	70%	O=C1CC[C@H](N2C(=O)c3ccc(NCC(=O)N4CCN(CCCN5CCN(c6ccc(Nc7ncnc8c7ncn8C7CC(NC(=O)Cc8ccccc8)C7)cc6)CC5)CC4)cc3C2=O)C(=O)N1 (stereo partly drawn) [Compound 233, N-((1s,3s)-3-(6-((4-(4-(3-(4-((2-(2,6-dioxopiperidin-3-yl)-1,3-dioxoisoindolin-5-yl)glycyl)piperazin-1-yl)propyl)piperazin-1-yl)phenyl)amino)-9H-purin-9-yl)cyclobutyl)-2-phenylacetamide]
60	40	0	100%	80%	70%	O=C1CC[C@H](N2C(=O)c3ccc(OCC(=O)N4CCN(CCCN5CCN(c6ccc(Nc7ncnc8c7ncn8[C@H]7C[C@@H](NC(=O)Cc8ccccc8)C7)cc6)CC5)CC4)cc3C2=O)C(=O)N1 [Compound 234, N-((1s,3s)-3-(6-((4-(4-(3-(4-(2-((2-(2,6-dioxopiperidin-3-yl)-1,3-dioxoisoindolin-5-yl)oxy)acetyl)piperazin-1-yl)propyl)piperazin-1-yl)phenyl)amino)-9H-purin-9-yl)cyclobutyl)-2-phenylacetamide]
70	0	0	100%	20%	20%	O=C1CCC(N2C(=O)c3ccc(N4CCN(CCCN5CCN(c6ccc(Nc7ncnc8c7ncn8[C@H]7C[C@@H](NC(=O)Cc8ccccc8)C7)cc6)CC5)CC4)cc3C2=O)C(=O)N1 (stereo partly drawn) [Compound 239, N-((1s,3s)-3-(6-((4-(4-(3-(4-(2-(2,6-dioxopiperidin-3-yl)-1,3-dioxoisoindolin-5-yl)piperazin-1-yl)propyl)piperazin-1-yl)phenyl)amino)-9H-purin-9-yl)cyclobutyl)-2-phenylacetamide]
